Laboratory results published in ChEMBL document CHEMBL3091431, “Aminopyridyl/Pyrazinyl Spiro[indoline-3,4'-piperidine]-2-ones As Highly Selective and Efficacious c-Met/ALK Inhibitors” (ACS Med Chem Lett, 2013).

Legend:
[1] = molecular target: Hepatocyte growth factor receptor (Homo sapiens, UniProt P08581); experiment: Inhibition of c-Met phosphorylation in human […] cells after 1 hr by western blotting; format: cell-based
[2] = molecular target: T1, ALK tyrosine kinase receptor (Homo sapiens, UniProt Q9UM73); experiment: Inhibition of human ALK (unknown origin) using poly[Glu:Tyr] as substrate by nanoliter kinase assay
Target sequence in this assay (Q9UM73 whole entry): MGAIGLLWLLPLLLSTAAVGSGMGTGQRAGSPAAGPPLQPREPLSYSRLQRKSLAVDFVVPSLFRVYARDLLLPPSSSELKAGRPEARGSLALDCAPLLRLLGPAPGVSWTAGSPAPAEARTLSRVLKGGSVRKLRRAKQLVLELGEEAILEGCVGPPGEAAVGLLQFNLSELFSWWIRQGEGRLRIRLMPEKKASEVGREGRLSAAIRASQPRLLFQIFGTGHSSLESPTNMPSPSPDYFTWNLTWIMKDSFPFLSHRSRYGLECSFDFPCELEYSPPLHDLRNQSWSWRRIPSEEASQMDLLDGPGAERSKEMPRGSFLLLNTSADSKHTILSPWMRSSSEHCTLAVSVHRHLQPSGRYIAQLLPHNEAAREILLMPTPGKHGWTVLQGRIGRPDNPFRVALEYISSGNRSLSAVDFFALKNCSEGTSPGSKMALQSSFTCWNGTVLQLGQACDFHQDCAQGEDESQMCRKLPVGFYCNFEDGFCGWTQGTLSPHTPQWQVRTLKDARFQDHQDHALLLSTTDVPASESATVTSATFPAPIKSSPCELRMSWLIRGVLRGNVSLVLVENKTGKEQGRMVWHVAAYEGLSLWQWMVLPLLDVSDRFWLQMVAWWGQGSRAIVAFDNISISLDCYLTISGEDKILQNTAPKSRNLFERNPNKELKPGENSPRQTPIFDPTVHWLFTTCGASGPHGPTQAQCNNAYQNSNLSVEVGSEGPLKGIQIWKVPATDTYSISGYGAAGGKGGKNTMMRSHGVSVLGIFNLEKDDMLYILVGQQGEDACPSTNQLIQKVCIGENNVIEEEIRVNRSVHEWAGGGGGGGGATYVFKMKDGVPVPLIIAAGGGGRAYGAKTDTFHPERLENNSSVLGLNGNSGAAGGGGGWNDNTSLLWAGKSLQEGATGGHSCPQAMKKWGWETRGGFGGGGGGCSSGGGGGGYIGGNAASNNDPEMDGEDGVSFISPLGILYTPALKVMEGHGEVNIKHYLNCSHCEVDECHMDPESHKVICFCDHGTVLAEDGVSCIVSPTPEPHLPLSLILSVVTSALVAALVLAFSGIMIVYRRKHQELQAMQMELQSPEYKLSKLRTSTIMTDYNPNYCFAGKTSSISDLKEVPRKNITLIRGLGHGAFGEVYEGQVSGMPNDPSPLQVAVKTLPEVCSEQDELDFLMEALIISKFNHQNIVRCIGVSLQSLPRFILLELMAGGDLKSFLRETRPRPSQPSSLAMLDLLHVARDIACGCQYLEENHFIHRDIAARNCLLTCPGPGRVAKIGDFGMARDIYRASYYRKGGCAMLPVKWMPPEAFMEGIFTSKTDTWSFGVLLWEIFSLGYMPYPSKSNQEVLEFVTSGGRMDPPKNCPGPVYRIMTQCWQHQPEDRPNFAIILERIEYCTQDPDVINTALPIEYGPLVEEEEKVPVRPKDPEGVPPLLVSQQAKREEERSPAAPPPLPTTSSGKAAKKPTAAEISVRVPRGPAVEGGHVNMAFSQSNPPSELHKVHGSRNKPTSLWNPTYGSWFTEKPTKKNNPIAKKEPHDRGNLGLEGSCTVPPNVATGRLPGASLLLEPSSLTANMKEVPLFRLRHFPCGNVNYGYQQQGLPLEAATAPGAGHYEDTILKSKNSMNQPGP

[3] = system: Mus musculus; experiment: Bioavailability in BALB/c mouse at 5 mg/kg, iv; format: ADME, organism-based; conditions: in vivo
[4] = system: Mus musculus; experiment: Toxicity in human GTL16 cells xenografted nu/nu mouse model assessed as change in body weight at 20 mg/kg, po qd for 14 days; format: organism-based; set-up: dose 20 mg/kg, route oral; conditions: in vivo, 336 h
[5] = animal or person; conditions: Homo sapiens, GTL 16, po, 336 h, read-out: TGI
Description: Antitumor activity against human GTL16 cells xenografted in nu/nu mouse assessed as tumor growth inhibition at 40 mg/kg, po qd for 14 days

[6] = AUC (0 to infinity) in BALB/c mouse at 5 mg/kg, iv; format: ADME, organism-based; set-up: time infinity, dose 5 mg/kg, route intravenous; conditions: plasma
[7] = cells; conditions: Homo sapiens, GTL 16, 48 h
Description: Antiproliferative activity against human GTL16 cells after 48 hrs by MTT assay

[8] = Cmax in BALB/c mouse at 20 mg/kg, po; format: ADME, organism-based; set-up: dose 20 mg/kg, route oral; conditions: in vivo
[9] = Cmax in BALB/c mouse at 5 mg/kg, iv; format: ADME, organism-based; set-up: dose 5 mg/kg, route intravenous; conditions: in vivo
[10] = molecular target: T1, ALK tyrosine kinase receptor; format: cell-based
Target sequence in this assay (Q9UM73 19-1620 limits assumed): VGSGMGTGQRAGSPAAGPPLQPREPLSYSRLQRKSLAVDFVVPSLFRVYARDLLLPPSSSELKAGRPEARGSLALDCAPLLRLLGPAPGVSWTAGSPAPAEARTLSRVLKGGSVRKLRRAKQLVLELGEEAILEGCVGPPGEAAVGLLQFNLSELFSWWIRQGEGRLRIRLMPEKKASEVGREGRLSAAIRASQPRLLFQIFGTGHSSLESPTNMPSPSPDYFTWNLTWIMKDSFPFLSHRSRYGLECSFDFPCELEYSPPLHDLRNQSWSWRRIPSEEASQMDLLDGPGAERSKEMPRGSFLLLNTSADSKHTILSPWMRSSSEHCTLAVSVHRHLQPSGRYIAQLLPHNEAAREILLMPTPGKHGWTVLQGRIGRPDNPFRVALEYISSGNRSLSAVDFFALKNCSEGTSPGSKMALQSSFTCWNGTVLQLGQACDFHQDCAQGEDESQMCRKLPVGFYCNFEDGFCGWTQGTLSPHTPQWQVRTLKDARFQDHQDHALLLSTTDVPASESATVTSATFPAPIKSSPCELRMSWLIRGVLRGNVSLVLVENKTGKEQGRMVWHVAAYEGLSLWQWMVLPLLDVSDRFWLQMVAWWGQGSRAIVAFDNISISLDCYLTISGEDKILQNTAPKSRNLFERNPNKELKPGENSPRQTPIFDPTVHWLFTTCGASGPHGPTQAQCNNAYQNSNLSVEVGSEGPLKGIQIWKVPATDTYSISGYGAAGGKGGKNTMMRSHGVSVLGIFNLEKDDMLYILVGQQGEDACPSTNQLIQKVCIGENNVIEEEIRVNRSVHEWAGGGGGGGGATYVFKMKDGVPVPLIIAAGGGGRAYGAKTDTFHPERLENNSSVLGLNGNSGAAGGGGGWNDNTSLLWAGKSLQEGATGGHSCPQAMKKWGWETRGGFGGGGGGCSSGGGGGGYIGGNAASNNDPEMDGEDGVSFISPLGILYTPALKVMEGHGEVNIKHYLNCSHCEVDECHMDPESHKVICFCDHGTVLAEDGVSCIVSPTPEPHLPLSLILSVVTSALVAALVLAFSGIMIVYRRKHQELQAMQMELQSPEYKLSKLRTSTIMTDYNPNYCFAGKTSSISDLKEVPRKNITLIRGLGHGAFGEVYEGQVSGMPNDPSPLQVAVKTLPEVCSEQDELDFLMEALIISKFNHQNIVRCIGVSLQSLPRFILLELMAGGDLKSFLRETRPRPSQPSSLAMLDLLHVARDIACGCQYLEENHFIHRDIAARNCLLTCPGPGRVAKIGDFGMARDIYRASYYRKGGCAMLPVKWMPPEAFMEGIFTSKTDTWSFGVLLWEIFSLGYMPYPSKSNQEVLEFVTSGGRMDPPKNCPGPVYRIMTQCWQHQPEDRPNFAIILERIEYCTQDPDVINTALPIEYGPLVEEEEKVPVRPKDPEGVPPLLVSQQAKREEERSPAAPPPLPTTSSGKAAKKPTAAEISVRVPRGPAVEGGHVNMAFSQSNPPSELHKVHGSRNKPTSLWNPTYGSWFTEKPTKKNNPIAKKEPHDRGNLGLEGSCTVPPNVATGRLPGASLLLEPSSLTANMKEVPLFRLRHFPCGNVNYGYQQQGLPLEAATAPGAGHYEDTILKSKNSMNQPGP
Description: Inhibition of NPM-fused ALK phosphorylation (unknown origin) expressed in human karpas 299 cells after 90 mins by Sandwich-ELISA

[11] = Oral bioavailability in BALB/c mouse at 20 mg/kg; format: ADME, organism-based; conditions: in vivo
[12] = animal or person; conditions: Homo sapiens, GTL 16, po, 336 h, read-out: TGI; remark: listed apart in the source
Description: Antitumor activity against human GTL16 cells xenografted in nu/nu mouse assessed as tumor growth inhibition at 20 mg/kg, po qd for 14 days

[13] = system: NCI-H1993; experiment: cells; conditions: Homo sapiens, NCI-H1993, 48 h
Description: Antiproliferative activity against human NCI-H1993 cells after 48 hrs by MTT assay

[14] = cells; conditions: Homo sapiens, NCI-H441, 48 h
Description: Antiproliferative activity against human H441 cells after 48 hrs by MTT assay

[15] = cells; conditions: Homo sapiens, U-87 MG, 48 h
Description: Antiproliferative activity against human U87MG cells after 48 hrs by MTT assay

[16] = AUC (0 to infinity) in BALB/c mouse at 20 mg/kg, po; format: ADME, organism-based; set-up: time infinity, dose 20 mg/kg, route oral; conditions: plasma

Chain of Hepatocyte growth factor receptor (P08581 whole entry): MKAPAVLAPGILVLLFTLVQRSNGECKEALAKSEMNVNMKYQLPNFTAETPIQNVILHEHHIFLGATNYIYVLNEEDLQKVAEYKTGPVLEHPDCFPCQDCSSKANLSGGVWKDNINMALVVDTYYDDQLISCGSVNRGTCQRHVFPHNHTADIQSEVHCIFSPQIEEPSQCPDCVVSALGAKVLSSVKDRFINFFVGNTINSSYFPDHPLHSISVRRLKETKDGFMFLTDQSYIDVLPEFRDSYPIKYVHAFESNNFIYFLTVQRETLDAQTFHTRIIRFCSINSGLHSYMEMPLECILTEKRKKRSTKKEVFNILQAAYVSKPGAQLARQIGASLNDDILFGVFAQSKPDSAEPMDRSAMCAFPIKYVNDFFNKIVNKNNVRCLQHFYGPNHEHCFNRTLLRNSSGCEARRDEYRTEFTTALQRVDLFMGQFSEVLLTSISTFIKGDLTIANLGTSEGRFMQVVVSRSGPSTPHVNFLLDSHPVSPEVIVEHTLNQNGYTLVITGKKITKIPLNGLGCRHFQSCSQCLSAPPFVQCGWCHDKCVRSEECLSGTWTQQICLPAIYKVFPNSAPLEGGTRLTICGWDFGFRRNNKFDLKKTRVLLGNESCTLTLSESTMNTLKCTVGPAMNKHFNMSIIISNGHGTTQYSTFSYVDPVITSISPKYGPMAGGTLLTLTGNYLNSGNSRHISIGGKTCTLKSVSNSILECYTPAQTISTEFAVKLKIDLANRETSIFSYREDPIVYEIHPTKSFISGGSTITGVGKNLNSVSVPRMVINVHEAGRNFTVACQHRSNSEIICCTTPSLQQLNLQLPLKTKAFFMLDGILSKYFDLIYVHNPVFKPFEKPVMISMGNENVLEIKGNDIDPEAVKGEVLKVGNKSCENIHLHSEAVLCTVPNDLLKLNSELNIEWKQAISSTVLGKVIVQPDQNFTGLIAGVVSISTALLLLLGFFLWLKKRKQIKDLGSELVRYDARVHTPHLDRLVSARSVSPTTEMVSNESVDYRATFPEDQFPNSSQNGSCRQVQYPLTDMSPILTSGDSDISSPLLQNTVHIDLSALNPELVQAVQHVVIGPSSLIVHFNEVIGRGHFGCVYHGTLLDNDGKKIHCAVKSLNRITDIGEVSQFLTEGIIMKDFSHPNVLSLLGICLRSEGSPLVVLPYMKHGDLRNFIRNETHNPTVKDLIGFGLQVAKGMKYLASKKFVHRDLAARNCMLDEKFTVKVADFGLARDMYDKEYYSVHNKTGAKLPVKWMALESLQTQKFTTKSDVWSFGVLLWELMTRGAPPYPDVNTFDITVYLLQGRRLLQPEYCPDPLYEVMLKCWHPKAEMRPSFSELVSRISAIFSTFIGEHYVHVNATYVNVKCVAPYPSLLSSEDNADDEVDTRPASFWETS

Structure (SMILES) | IC50 [1] [µM] | IC50 [2] [µM] | F [3] [%] | Activity [4] | inhibition in vivo at 40 mg/kg [5] [%] | AUC(0-inf) [6] [ng·h/mL] | IC50 [7] [µM] | Cmax [8] [nM] | Cmax [9] [nM] | IC50 [10] [µM] | bioavailability [11] [%] | inhibition in vivo at 20 mg/kg [12] [%] | IC50 [13] [µM] | IC50 [14] [µM] | IC50 [15] [µM] | AUC(0-inf) [16] [ng·h/mL]
CN1CCC2(CC1)C(=O)Nc1ccc(-c3cnc(N)c(OCc4c(Cl)ccc(F)c4Cl)c3)cc12 | > 10 | – | – | – | – | – | – | – | – | – | – | – | – | – | – | –
C[C@@H](Oc1cc(-c2ccc3c(c2)NC(=O)C32CCN(C)CC2)cnc1N)c1c(Cl)ccc(F)c1Cl | – | < 0.0005 | 100 | Non-toxic | 87 | 1230 | 0.02 | 1450 | 1360 | 0.039 | 48 | 52 | 1.58 | 2.82 | > 10 | 2350
